Where a name gives a salt, the structure may show the parent alone.
Key:
Human LOXL2 = Human LOXL2 (Homo sapiens (Human), UniProt Q9Y4K0); experiment: LOXL2 inhibition, peroxidase-coupled Amplex Red amine oxidase assay; assay type: biochemical; conditions: 30 min preincubation at 37° C., putrescine substrate
Outline: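 Enzyme in 1.2 M urea, 50 mM sodium borate pH 8.2 with 1 μM mofegiline and 0.5 mM pargyline, preincubated 30 min at 37° C with compound (11-point CRC). Putrescine at twice KM (10 mM for LOXL2) with Amplex Red/HRP; fluorescence (ex 565, em 590) read kinetically 30 min; IC50 from slopes.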

[1] = system: myocardial infarction induced fibrosis; experiment: Myocardial infarction induced fibrosis (carotic ligation) model; assay type: in vivo, mouse; conditions: mice, 0.1-100 mg/Kg once a day oral gavage, FIG. 5
From the text: Carotic ligation is a widely accepted experimental model to induce cardiac fibrosis and to determine the anti-fibrotic activity of therapeutic agents.
In mice, the chest is opened via a left thoracotomy. The left coronary artery is identified visually using a stereo microscope, and a 7-0 suture is placed around the artery 1-2 mm below the left auricle. Permanent occlusion of the left coronary artery resulted from its ligation with the suture. Myocardial ischemia was confirmed by pallor in heart color and ST-segment elevation. (see Parajuli et al. Phosphatase PTEN is critically involved in post-myocardial infarction remodeling through the Akt/interleukin-10 signaling pathway Basic Res Cardiol (2012) 107:248).
Mice were subjected to sham or carotic ligation surgery. At 24 hrs post-surgery, echocardiography was performed on the mice. Mice were treated with compound 25 0.1-100 mg/Kg once a day for 21 (7 days after carotic ligation) or 28 days or saline as vehicle controls by oral gavage. At the end of the experiment, echocardiography was repeated to assess left ventricular function and remodeling. Then mice were euthanized for heart collection. Each heart was photographed and fixed with 10% formalin. Hearts were sectioned for Masson's trichrome stain to measure fibrosis (See FIG. 5).

[2] = system: primary fibroblasts from confirmed cases of IPF; experiment: Collagen cross-link formation in in vitro fibroblastic foci model of IPF; assay type: cell-based, human; conditions: TGF-β1 stimulated foci, six weeks culture, FIGS. 7a and 7b
From the text: The lung tissue of patients with idiopathic pulmonary fibrosis (IPF) is characterised by dense collections of myofibroblasts and extracellular matrix (ECM) termed ‘fibroblastic foci’. Using a novel in vitro model of fibroblastic foci (Jones et al., AJRCCM 191; 2015:A4912) the formation of lysyl oxidase (LOX) mediated collagen cross-links and the effects of the nonselective LOX inhibitor β-aminopropionitrile (BAPN) as well lysyl oxidase like-2 (LOXL2)-selective inhibitors were investigated.
Cultures of primary fibroblasts were grown out from clinical diagnostic biopsies of fibrotic lung and stored in liquid nitrogen. […]
To quantify collagen cross-links (Robins Biochem Soc Trans 2007; 35(5): 849-852; Saito et al Anal. Biochem. 1997; 253: 26-32; Sims, Avery & Bailey Methods in Molecular Biology 2000; vol 139: 11-26), cultures were treated with potassium borohydride to stabilise the reducible immature cross-links, and hydrolysed in 6N HCl at 100° C. for 16 hr. Total collagen content was assessed by hydroxyproline assay. Immature cross-links were assessed by LC/MS/MS and mature pyridinoline cross-links by ELISA. Cross-link data is expressed as moles of cross-link per mole collagen.

[3] = system: STAM mice, NASH liver fibrosis; experiment: Streptozotocin and high fat diet induced liver fibrosis (STAM model); assay type: in vivo, mouse; conditions: daily oral gavage 10-30 mg/kg, FIG. 6
Description: High fat/carbohydrate diet induced liver fibrosis is the most common reason for liver dysfunction and ultimately liver failure. NASH is induced in male mice by a single subcutaneous injection of 200 μg streptozotocin solution 2 days after birth and feeding with high fat diet after 4 weeks of age (STAM™ model).
LOXL2 inhibitor compound 112 was administered by daily oral gavage at doses between 10-30 mg/kg 8 weeks after streptozotocin application. Mice were sacrificed after NASH had been established and whole blood samples were taken via cardiac puncture. Liver samples were collected and washed with cold saline. Liver weight was measured. The left lateral, right and caudate lobes of livers were snap frozen in liquid nitrogen and stored at −80° C. For HE staining, sections were cut from paraffin blocks of liver tissue prefixed in Bouin's solution and stained with Lillie-Mayer's Hematoxylin and eosin solution. NAFLD Activity score (NAS) was calculated according to the criteria of Kleiner (Kleiner D E. et al., Design and validation of a histological scoring system for nonalcoholic fatty liver disease. Hepatology, 2005; 41:1313). To visualize collagen deposition, Bouin's fixed liver sections were stained using picro-Sirius red solution and the area of fibrosis was quantified (See FIG. 6).

Chain of Human LOXL2 (Q9Y4K0 26-774): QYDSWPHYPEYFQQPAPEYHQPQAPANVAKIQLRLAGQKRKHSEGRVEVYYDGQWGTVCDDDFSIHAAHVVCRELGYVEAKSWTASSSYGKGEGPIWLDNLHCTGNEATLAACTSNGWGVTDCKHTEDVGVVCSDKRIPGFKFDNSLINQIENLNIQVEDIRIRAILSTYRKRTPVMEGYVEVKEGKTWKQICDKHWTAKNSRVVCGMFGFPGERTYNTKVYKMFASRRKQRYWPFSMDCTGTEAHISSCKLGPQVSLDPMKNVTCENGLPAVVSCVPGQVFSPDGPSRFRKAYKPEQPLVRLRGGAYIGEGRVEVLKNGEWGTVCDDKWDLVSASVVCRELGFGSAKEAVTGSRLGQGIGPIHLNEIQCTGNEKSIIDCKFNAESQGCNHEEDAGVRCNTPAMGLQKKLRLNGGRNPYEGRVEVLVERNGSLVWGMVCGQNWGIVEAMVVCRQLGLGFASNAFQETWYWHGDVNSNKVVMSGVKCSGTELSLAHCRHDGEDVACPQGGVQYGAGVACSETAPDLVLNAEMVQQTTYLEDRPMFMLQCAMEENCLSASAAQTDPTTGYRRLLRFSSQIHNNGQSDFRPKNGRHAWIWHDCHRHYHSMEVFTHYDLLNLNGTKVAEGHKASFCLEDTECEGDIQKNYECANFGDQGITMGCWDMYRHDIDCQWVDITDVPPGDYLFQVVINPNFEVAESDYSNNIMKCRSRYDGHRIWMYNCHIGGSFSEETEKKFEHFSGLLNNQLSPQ

Structure (SMILES): CCOC(=O)c1ccc2c(c1)c(-c1cccc(S(=O)(=O)N(C)C)c1)c(C)n2C/C(F)=C/CN [Compound 12, (Z)-ethyl 1-(4-amino-2-fluorobut-2-en-1-yl)-3-(3-(N,N-dimethylsulfamoyl)phenyl)-2-methyl-1H-indole-5-carboxylate]
- IC50 (Human LOXL2): < 0.3 µM

Structure (SMILES): Cc1c(-c2cccc(S(=O)(=O)N(C)C)c2)c2ncccc2n1C/C(F)=C/CN [Compound 25, (Z)-3-(1-(4-amino-2-fluorobut-2-en-1-yl)-2-methyl-1H-pyrrolo[3,2-b]pyridin-3-yl)-N,N-dimethylbenzenesulfonamide Dihydrochloride]
- IC50 (Human LOXL2): < 0.3 µM
- fibrosis after carotic ligation (Masson's trichrome stain) [1]: reduce fibrosis

Structure (SMILES): Cc1ccc2c(n1)c(-c1cccc(S(C)(=O)=O)c1)c(C)n2C/C(F)=C/CN [Compound 112, (Z)-4-(2,5-dimethyl-3-(3-(methylsulfonyl)phenyl)-1H-pyrrolo[3,2-b]pyridin-1-yl)-3-fluorobut-2-en-1-amine Dihydrochloride]
- collagen cross-link formation (immature and mature cross-links) [2]: reduced cross-link formation in a concentration dependent manner
- liver fibrosis (picro-Sirius red area of fibrosis) [3]: reduce lilver fibrosis
- IC50 (Human LOXL2): < 0.3 µM

Source: US10717733B2, “Haloallylamine indole and azaindole derivative inhibitors of lysyl oxidases and uses thereof” (PHARMAXIS LTD., priority 2016, dated 2020)
